Literature values in patent US20180015057A1, “ERR ALPHA AND ERR GAMMA ARE ESSENTIAL COORDINATORS OF CARDIAC METABOLISM AND FUNCTION” (Salk Institute for Biological Studies, priority 2015, published 2018).

Legend:
ERRβ = target: T1, ERRβ (Homo sapiens, UniProt O95718); conditions: for activation of ERRβ: for example in the presence of PGC-1a
T1 sequence (O95718 1-433): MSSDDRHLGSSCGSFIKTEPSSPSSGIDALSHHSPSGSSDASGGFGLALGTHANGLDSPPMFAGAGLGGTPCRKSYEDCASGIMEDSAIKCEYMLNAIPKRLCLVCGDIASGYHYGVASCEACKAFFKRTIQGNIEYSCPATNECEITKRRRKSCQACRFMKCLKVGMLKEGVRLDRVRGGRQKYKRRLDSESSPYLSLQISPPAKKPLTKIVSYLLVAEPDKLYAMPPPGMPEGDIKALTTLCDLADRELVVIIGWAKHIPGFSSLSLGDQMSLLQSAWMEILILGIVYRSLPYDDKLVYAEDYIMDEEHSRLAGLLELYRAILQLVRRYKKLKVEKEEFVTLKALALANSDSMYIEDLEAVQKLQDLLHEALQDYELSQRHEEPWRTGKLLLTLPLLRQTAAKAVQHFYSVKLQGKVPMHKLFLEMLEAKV

ERRγ = target: T2, ERRγ (Homo sapiens, UniProt P62508); conditions: for activation of ERRγ: for example in the presence of PGC-1a
T2 sequence (P62508 1-458): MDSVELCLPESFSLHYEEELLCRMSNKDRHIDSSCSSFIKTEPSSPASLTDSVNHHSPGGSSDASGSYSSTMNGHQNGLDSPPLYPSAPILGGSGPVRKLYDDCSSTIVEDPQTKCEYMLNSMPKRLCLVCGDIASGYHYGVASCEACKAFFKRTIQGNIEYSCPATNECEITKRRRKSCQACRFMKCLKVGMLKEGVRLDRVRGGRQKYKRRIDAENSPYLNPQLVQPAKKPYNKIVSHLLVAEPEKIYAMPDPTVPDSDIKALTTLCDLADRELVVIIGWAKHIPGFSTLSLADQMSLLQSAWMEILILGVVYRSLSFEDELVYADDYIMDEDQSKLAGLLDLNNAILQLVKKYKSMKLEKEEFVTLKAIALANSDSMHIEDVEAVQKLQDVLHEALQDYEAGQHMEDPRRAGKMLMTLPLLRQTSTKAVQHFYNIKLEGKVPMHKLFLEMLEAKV

ERRα = target: T3, ERRα (Homo sapiens, UniProt P11474); conditions: for example in the presence of PGC-1a
T3 sequence (P11474 1-423): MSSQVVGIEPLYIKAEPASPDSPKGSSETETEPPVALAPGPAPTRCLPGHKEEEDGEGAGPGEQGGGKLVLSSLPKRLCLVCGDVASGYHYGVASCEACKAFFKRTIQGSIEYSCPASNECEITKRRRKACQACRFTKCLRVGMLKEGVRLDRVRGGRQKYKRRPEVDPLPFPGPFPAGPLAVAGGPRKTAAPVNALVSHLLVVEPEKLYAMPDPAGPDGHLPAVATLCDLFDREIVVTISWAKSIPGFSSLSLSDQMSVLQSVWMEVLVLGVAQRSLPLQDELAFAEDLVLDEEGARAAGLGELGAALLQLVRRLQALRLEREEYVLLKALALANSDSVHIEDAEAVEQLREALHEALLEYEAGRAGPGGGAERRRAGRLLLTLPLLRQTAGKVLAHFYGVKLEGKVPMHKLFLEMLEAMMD

Compound	agonism of ERRβ (ERRβ)	agonism of ERRγ (ERRγ)	activation of ERRα (ERRα)	activation of ERRβ (ERRβ)	activation of ERRγ (ERRγ)	selectivity for ERRγ versus ERRα and β (ERRγ; screening assay for agonists derived from GSK4716 (Kim et al. 2009))
CCN(CC)c1ccc(C=NNC(=O)c2ccc(O)cc2)cc1 (stereo in doubt) [GSK9089, N-[(E)-[4-(diethylamino)phenyl]methylideneamino]-4-hydroxybenzamide]	agonists	agonists				
CC(C)c1ccc(/C=N/NC(=O)c2ccc(O)cc2)cc1 [GSK4716]	agonists					
O=C(NN=Cc1ccccc1)c1ccc(O)cc1 [DY162]			activate	activate	activate	
CCc1ccc(C=NNC(=O)c2ccc(O)cc2)s1 [DY164]			activate	activate	activate	
Cc1ccc(/C=N/NC(=O)c2ccc(O)cc2)cc1 [DY163]			activate	activate	activate	
Nc1ccc(C(=O)N/N=C/c2ccc(/N=N/c3ccccc3)cc2)cn1 [E6]						selective for ERRγ but not ERRα and β
Cc1cccc(C=NNC(=O)c2ccc(O)cc2)c1 [DY159]			activate	activate	activate	
